Experimental data from patent US8067424B2, “Selective inhibitors for cyclin-dependent kinases” (Emory University, priority 2007, dated 2011).
Read-outs that look alike come from different tables or passages of the source.

Key:
Format in all cases: biochemical
IR-HIS = molecular target: T1, IR-HIS (Homo sapiens, UniProt P06213); assay: Kinase screen: IR-HIS assay; settings: 10 micromolar compound; for remaining activity at 10 µM: read-out: mean activity remaining (as a percentage of the original activity), IR-HIS
T1 construct: His
Procedure: (§1) Generally, the same procedure was used for all assays. Since the total assay volume was 25.5 microliters, 0.5 microliters of inhibitors at 51× assay concentration were added to the plates before any other addition.
(§2) The basic procedure was to add 0.5 microliters inhibitor/control in DMSO to plate. Fifteen microliters of enzyme/substrate/buffer mix were added and incubated for 5 min. Ten microliters MgATP at the relevant concentration were added and incubated for 30 min. The assay was stopped by adding 5 microliters of 3% orthophosphoric acid. The assay was transferred to a p81 filter plate and read in a scintillation counter of 30 sec/well. Note that this assay procedure was not followed for MKK1, which instead involved a two-step assay, and PKC alpha, which required the addition of lipid vesicles.
IR-HIS assay: IR-HIS (5-20 mU diluted in 50 mM Tris pH 7.5, 0.1 mM EGTA, 1 mg/ml BSA) was assayed against a substrate peptide ([…]) (SEQ ID NO: 36) in a final volume of 25.5 μl containing 50 mM Tris pH 7.5, 300 μM substrate peptide, 10 mM magnesium acetate and 0.02 mM [33P-g-ATP] (50-1000 cpm/pmole) and incubated for 30 min at room temperature. Assays were stopped by addition of 5 μl of 0.5 M (3%) orthophosphoric acid and then harvested onto P81 Unifilter plates with a wash buffer of 50 mM orthophosphoric acid.

Src = Src (Homo sapiens, UniProt P12931); assay: Kinase screen: Src assay
Procedure: as §1, §2
(50-1000 cpm/pmole) and incubated for 30 min at room temperature. Assays were stopped by addition of 5 μl of 0.5 M (3%) orthophosphoric acid and then harvested onto P81 Unifilter plates with a wash buffer of 50 mM orthophosphoric acid.

ERK1 = ERK1 (Homo sapiens, UniProt P27361); assay: Kinase screen: ERK1 assay
Procedure: as §1, §2
ERK1 assay: 5-20 mU of ERK1 (diluted in 50 mM Tris (pH 7.5), 0.1 mM EGTA, 1 mg/ml BSA, 0.1%, b-Mercaptoethanol) was assayed against MBP in a final volume of 25.5 μl containing 50 mM Tris (pH 7.5), 0.1 mM EGTA, 0.1%, b-Mercaptoethanol, 0.33 mg/ml MBP, 10 mM magnesium acetate and 0.005 mM [33P-g-ATP] (500-1000 cpm/pmole) and incubated for 30 mins at room temperature. Assays were stopped by addition of 5 μl of 0.5M (3%) orthophosphoric acid. Assays were harvested onto P81 Unifilter plates using a wash buffer of 50 mM orthophosphoric acid.

PDK1 = molecular target: T2, PDK1 (Homo sapiens, UniProt O15530); assay: Kinase screen: PDK1 assay
T2 sequence (O15530 1-556): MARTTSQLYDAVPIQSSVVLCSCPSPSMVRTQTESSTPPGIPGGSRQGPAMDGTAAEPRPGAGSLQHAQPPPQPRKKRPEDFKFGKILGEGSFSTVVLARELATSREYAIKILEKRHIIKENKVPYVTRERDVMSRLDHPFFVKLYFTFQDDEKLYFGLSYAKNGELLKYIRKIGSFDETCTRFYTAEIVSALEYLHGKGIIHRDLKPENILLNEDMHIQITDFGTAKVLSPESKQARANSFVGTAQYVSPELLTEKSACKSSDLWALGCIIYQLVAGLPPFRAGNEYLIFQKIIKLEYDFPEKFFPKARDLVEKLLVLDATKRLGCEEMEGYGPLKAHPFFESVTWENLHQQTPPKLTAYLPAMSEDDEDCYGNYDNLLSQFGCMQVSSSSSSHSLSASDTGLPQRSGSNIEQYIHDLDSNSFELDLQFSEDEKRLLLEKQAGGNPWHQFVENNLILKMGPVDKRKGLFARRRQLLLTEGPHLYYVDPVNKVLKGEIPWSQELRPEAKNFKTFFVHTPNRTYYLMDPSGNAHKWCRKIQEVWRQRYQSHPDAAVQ
Procedure: as §1, §2
(50-1000 cpm/pmole) and incubated for 30 min at room temperature Assays were stopped by addition of 5 μl of 0.5 M (3%) orthophosphoric acid and then harvested onto P81 Unifilter plates with a wash buffer of 50 mM orthophosphoric acid.

SYK = SYK (Homo sapiens, UniProt P43405); assay: Kinase screen: SYK assay; settings: 10 micromolar compound; for remaining activity at 10 µM: read-out: mean activity remaining (as a percentage of the original activity), SYK
Procedure: as §1, §2
SYK assay: SYK (5-20 mU diluted in 50 mM Tris pH 7.5, 0.1 mM EGTA, 1 mg/ml BSA) was assayed against a substrate peptide (Poly Glut Tyr) in a final volume of 25.5 μl containing 50 mM Tris pH 7.5, 1 mg/ml substrate peptide, 10 mM magnesium acetate and 0.02 mM [33P-g-ATP] (50-1000 cpm/pmole) and incubated for 30 min at room temperature. Assays were stopped by addition of 5 μl of 0.5 M (3%) orthophosphoric acid and then harvested onto P81 Unifilter plates with a wash buffer of 50 mM orthophosphoric acid.

JNK2 = JNK2 (Homo sapiens, UniProt P45984); assay: Kinase screen: JNK2 assay
Procedure: as §1, §2
JNK2 assay: JNK2 1(5-20 mU diluted in 50 mM Tris (pH 7.5), 0.1 mM EGTA, 1 mg/ml BSA, 0.1% b-mercaptoethanol) was assayed against ATF2 (activating transcription factor in a final volume of 25.5 μl in 50 mM Tris pH 7.5, 0.1 mM EGTA, 0.1% b-Mercaptoethanol, ATF2 (3 μM), 10 mM magnesium acetate and 0.02 mM [33P-g-ATP] (500-1000 cpm/pmole) and incubated for 30 min at room temperature. Assays were stopped by addition of 5 μl of 0.5 M (3%) orthophosphoric acid and then harvested onto P81 Unifilter plates with a wash buffer of 50 mM orthophosphoric acid.

[1] = 10 micromolar compound, read-out: mean activity remaining (as a percentage of the original activity), Src
[2] = 10 micromolar compound, read-out: mean activity remaining (as a percentage of the original activity), ERK1
[3] = 10 micromolar compound, read-out: mean activity remaining (as a percentage of the original activity), PDK1
[4] = 10 micromolar compound, read-out: mean activity remaining (as a percentage of the original activity), JNK2

Chain of JNK2 (P45984 whole entry, species assumed): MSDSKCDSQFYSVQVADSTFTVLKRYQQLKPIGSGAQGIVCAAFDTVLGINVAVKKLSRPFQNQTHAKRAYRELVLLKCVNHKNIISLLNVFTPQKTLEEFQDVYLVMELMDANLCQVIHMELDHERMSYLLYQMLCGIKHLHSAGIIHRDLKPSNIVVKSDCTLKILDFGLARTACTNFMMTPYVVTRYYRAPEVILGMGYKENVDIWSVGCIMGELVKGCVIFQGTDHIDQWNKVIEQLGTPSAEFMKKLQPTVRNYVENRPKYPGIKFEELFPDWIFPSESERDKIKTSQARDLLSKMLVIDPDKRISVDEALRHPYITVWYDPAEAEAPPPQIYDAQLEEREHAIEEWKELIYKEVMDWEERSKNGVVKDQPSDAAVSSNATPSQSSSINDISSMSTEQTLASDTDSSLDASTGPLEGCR
Chain of ERK1 (P27361 whole entry, species assumed): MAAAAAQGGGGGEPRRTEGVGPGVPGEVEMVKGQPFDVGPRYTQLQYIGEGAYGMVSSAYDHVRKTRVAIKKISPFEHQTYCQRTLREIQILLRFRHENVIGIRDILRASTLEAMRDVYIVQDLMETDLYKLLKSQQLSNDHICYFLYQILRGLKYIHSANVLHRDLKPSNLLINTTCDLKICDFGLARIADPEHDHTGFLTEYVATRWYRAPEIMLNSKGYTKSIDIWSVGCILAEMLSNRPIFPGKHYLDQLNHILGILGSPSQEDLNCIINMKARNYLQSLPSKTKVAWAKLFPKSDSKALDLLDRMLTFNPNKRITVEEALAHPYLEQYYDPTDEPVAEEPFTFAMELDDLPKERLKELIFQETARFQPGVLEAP
Chain of Src (P12931 whole entry, species assumed): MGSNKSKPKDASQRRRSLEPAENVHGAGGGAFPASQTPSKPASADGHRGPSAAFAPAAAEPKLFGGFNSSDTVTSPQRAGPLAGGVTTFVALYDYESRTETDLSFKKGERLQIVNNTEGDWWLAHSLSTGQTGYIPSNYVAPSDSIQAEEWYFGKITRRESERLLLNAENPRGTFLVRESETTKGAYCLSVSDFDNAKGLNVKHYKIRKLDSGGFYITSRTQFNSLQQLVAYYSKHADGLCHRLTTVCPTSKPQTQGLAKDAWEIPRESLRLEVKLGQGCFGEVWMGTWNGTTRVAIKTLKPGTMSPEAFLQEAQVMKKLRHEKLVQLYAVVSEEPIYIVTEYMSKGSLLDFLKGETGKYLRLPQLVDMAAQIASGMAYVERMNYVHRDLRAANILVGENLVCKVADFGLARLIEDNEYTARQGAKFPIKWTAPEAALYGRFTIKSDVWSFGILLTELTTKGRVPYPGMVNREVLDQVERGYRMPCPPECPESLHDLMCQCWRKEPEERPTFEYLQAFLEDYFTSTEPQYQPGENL
T1 sequence (P06213 28-1382): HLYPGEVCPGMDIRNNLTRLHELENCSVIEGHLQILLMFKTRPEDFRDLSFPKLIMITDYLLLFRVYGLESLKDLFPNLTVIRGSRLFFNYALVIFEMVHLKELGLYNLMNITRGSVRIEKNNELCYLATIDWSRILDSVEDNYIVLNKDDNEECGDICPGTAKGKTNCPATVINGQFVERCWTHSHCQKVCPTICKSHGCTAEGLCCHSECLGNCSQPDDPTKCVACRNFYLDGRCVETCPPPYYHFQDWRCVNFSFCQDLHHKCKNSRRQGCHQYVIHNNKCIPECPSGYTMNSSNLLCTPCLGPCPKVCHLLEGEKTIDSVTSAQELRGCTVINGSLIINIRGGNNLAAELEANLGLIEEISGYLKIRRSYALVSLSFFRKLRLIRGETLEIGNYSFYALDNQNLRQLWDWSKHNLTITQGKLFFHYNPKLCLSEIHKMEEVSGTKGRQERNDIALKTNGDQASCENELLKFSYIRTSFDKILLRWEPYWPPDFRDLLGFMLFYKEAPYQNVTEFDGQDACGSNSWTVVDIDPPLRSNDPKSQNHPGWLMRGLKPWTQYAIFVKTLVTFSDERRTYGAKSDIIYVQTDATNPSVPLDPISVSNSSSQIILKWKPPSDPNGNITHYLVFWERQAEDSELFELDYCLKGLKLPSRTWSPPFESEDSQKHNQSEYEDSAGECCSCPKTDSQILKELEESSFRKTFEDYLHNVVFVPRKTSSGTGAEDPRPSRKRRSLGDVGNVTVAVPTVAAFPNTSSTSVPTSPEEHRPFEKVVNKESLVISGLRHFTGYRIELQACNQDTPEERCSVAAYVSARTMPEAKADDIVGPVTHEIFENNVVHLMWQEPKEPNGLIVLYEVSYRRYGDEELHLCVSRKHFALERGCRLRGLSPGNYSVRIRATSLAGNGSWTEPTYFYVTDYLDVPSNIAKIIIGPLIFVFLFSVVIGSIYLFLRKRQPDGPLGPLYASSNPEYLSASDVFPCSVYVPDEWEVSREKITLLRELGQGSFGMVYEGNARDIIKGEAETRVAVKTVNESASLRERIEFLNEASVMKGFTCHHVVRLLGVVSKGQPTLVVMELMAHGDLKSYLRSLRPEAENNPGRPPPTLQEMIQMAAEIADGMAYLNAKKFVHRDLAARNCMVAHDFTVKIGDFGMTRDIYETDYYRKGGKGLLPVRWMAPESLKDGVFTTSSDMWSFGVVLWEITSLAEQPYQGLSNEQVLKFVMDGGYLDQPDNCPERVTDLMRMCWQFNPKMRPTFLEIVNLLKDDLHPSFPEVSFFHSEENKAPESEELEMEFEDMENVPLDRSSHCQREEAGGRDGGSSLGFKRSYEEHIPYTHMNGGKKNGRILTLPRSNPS

| SMILES | mean activity remaining (as a percentage of the original activity), IR-HIS (IR-HIS) [%] | mean activity remaining (as a percentage of the original activity), Src (Src; 10 micromolar compound) [%] | mean activity remaining (as a percentage of the original activity), ERK1 (ERK1; 10 micromolar compound) [%] | mean activity remaining (as a percentage of the original activity), PDK1 (PDK1; 10 micromolar compound) [%] | mean activity remaining (as a percentage of the original activity), SYK (SYK) [%] | mean activity remaining (as a percentage of the original activity), JNK2 (JNK2; 10 micromolar compound) [%] | remaining activity at 10 µM (Src; Src, 10 μM, read-out: Mean Remaining Enzyme Activity (%)) [%] | remaining activity at 10 µM (ERK1; ERK1, 10 μM, read-out: Mean Remaining Enzyme Activity (%)) [%] | remaining activity at 10 µM (PDK1; PDK1, 10 μM, read-out: Mean Remaining Enzyme Activity (%)) [%] | remaining activity at 10 µM (JNK2; JNK2, 10 μM, read-out: Mean Remaining Enzyme Activity (%)) [%] | remaining activity at 10 µM (IR-HIS) [%] | remaining activity at 10 µM (Src; [1]) [%] | remaining activity at 10 µM (ERK1; [2]) [%] | remaining activity at 10 µM (PDK1; [3]) [%] | remaining activity at 10 µM (SYK) [%] | remaining activity at 10 µM (JNK2; [4]) [%] |
| --- | --- | --- | --- | --- | --- | --- | --- | --- | --- | --- | --- | --- | --- | --- | --- | --- |
| CC(C)c1cnn2c(NCc3ccccc3F)cc(NCCCCCN)nc12 [ICEC-0232] | 58 | 96 | 90 | 101 | 84 | 89 | – | – | – | – | – | – | – | – | – | – |
| CC(C)c1cnn2c(NCc3ccccc3)cc(NCCCCCCCN)nc12 [BS-181] | – | – | – | – | – | – | 88 | 108 | 80 | 90 | – | – | – | – | – | – |
| CC[C@H](CO)Nc1cc(NCc2ccccc2)n2ncc(C(C)C)c2n1 [ICEC0067] | – | – | – | – | – | – | – | – | – | – | 78 | 90 | 69 | 87 | 104 | 97 |
| C=C[C@H](CO)Nc1cc(NCc2ccccc2)n2ncc(C(C)C)c2n1 [ICEC0065] | – | – | – | – | – | – | – | – | – | – | 71 | 112 | 84 | 78 | 104 | 88 |
| CC(C)c1cnn2c(NCc3ccccc3)cc(N[C@@H](CO)[C@H](O)CO)nc12 [ICEC0318, (3S)-3-(7-(Benzylamino)-3-isopropylpyrazolo[1,5-a]pyrimidin-5-ylamino)butane-1,2,4-triol] | – | – | – | – | – | – | – | – | – | – | 70 | 95 | 42 | 84 | 120 | 94 |
